Measurements published in patent US11261186B2, “Biaryl derivative as GPR120 agonist” (LG CHEM, LTD., priority 2014, dated 2022).
pEC50: −log10 of the molar value.

Target: T1, hGPR120 (Homo sapiens, UniProt Q5NUL3)
T1 construct: expressed in transfected cells; host or cells: CHO-K1
T1 sequence (Q5NUL3 1-361): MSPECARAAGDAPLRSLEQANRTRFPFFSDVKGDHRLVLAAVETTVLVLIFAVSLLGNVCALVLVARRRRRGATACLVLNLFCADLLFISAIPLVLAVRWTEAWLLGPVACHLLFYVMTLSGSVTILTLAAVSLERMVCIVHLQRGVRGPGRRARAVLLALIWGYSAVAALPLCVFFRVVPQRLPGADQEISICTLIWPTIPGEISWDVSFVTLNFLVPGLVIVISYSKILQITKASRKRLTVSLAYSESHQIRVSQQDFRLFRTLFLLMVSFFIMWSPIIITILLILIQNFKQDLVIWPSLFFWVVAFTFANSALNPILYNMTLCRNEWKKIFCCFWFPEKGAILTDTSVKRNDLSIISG
Test: Measurement of Activity of GPR120 Agonist (Cell-Based Assay), Calcium 5 dye fluorescence
Conditions: CHO-K1 cells expressing Ga16 and hGPR120
Summary of the method: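 Agonist-evoked calcium signal, expressed as percent relative to DMSO-only wells, read at 485/525 nm after serial-dilution addition (0.5% DMSO final). Cells were hGPR120/Gα16 CHO-K1, seeded 18 h earlier and dye-loaded for 1 h at 37°C.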

Compound | pEC50
CCCOc1cccc(-c2cc(F)c(N(C)CCCC(=O)O)c(F)c2)c1OCCC [Example 460, 4-[4-(2,3-dipropoxyphenyl)-2,6-difluoro-N-methyl-anilino]butanoic acid] | 5.70 to 6.70
O=C(O)CCCC1(c2c(F)cc(-c3cccc(OCC4CC4)n3)cc2F)CC1 [Example 170, 4-{1-[4-(6-cyclopropylmethoxy-pyridin-2-yl)-2,6-difluoro-phenyl]-cyclopropyl}-butyric acid] | > 6.70
Oc1cc(COc2c(F)cc(-c3cccnc3OC3CCC3)cc2F)on1 [Example 76, 5-[[4-[2-(cyclobutoxy)-3-pyridyl]-2,6-difluoro-phenoxy]methyl]isoxazol-3-ol] | > 6.70
Oc1cc(CCNc2c(F)cc(-c3cccnc3OC3CCCC3)cc2F)on1 [Example 90, 5-[2-[4-[2-(cyclopentoxy)-3-pyridyl]-2,6-difluoro-anilino]ethyl]isoxazol-3-ol] | 5.70 to 6.70
CCOc1cc(C)nc(-c2cc(F)c(N3CCC(CC(=O)O)CC3)c(F)c2)n1 [Example 349, 2-[1-[4-(4-ethoxy-6-methyl-pyrimidin-2-yl)-2,6-difluoro-phenyl]-4-piperidyl]acetic acid] | > 6.70
Cc1nc(-c2cc(F)c(N3CCC(CC(=O)O)CC3)c(F)c2)nc(OC2CCC2)c1C [Example 384, 2-[1-[4-[4-(cyclobutoxy)-5,6-dimethyl-pyrimidin-2-yl]-2,6-difluoro-phenyl]-4-piperidyl]acetic acid] | 4.70 to 5.70
O=C(O)CC1CCN(c2c(F)cc(-c3nc(Oc4ccc(F)cc4)cc(C(F)(F)F)n3)cc2F)CC1 [Example 619, (1-{2,6-difluoro-4-[4-(4-fluoro-phenoxy)-6-trifluoromethyl-pyrimidin-2-yl]-phenyl}-piperidin-4-yl)-acetic acid] | 4.70 to 5.70
CC(C)Sc1cccc(-c2cc(F)c(OCc3cc(O)no3)c(F)c2)n1 [Example 70, 5-[[2,6-difluoro-4-(6-isopropylsulfanyl-2-pyridyl)phenoxy]methyl]isoxazol-3-ol] | > 6.70
Cc1cc(Oc2cccc(C(F)(F)F)c2)nc(-c2cc(F)c(N3CCC(CC(=O)O)CC3)c(F)c2)n1 [Example 613, 2-[1-[2,6-difluoro-4-[4-methyl-6-[3-(trifluoromethyl)phenoxy]pyrimidin-2-yl]phenyl]-4-piperidyl]acetic acid] | 4.70 to 5.70
Oc1cc(CCc2c(F)cc(-c3cccnc3OC3CCCC3)cc2F)on1 [Example 87, 5-[2-[4-[2-(cyclopentoxy)-3-pyridyl]-2,6-difluoro-phenyl]ethyl]isoxazol-3-ol] | > 6.70
COc1cccc(-c2cc(F)c(OCCCC(=O)O)c(F)c2)c1OC [Example 446, 4-[4-(2,3-dimethoxyphenyl)-2,6-difluoro-phenoxy]butanoic acid] | 5.70 to 6.70
O=C(O)CCC1CCc2cc(-c3cccnc3OC3CCC3)ccc2S1 (stereo not shown) [Example 278, 3-[6-(2-cyclobutoxy-pyridin-3-yl)-thiochroman-2-yl]-propionic acid] | > 6.70
O=C(O)CCCN1CCc2cc(-c3cccnc3SC3CCCC3)ccc21 [Example 132, 4-[5-(2-cyclopentylsulfanyl-3-pyridyl)indolin-1-yl]butanoic acid] | > 6.70
O=C(O)C1CC1COc1c(F)cc(-c2nccc(OC3CCC3)n2)cc1F (stereo not shown) [Example 543, 2-[4-(4-cyclobutoxy-pyrimidin-2-yl)-2,6-difluoro-phenoxymethyl]-cyclopropanecarboxylic acid] | > 6.70
O=C(O)CC1CCN(c2c(F)cc(-c3cccc(C4CCCC4)n3)cc2F)CC1 [Example 317, 2-[1-[4-(6-cyclopentyl-2-pyridyl)-2,6-difluoro-phenyl]-4-piperidyl]acetic acid] | 5.70 to 6.70
CC(C)Nc1cncc(-c2cc(F)c(N3CCC(CC(=O)O)C3)c(F)c2)n1 (stereo not shown) [Example 505, 2-{1-[2,6-difluoro-4-(6-isopropylamino-pyrazin-2-yl)phenyl]pyrrolidin-3-yl}acetic acid] | 5.70 to 6.70
O=C(O)CCCOc1c(F)cc(-c2csc(OC3CCC3)n2)cc1Cl [Example 426, 4-[2-chloro-4-(2-cyclobutoxy-thiazol-4-yl)-6-fluoro-phenoxy]-butyric acid] | > 6.70
O=C(O)CC1CCN(c2c(F)cc(-c3cccc(OCC4CCC4)n3)cc2F)C1 (stereo not shown) [Example 564, {1-[4-(6-cyclobutylmethoxy-pyridin-2-yl)-2,6-difluoro-phenyl]-pyrrolidin-3-yl}-acetic acid] | 5.70 to 6.70

The remaining lines, values ahead:

pEC50 | Compound
> 6.70 | CC(C)Oc1cccc(-c2cc(F)c(OCCCC(=O)O)c(Cl)c2)n1 [Example 402, 4-[2-chloro-6-fluoro-4-(6-isopropoxy-pyridin-2-yl)-phenoxy]-butyric acid]
> 6.70 | CC(C)Sc1ncccc1-c1cc(F)c(NCCCCC(=O)O)c(F)c1 [Example 97, 5-[2,6-difluoro-4-(2-isopropylsulfanyl-3-pyridyl)anilino]pentanoic acid]
5.70 to 6.70 | O=C(O)C1CC1COc1c(F)cc(-c2cncc(OCC3CC3)n2)cc1F (stereo not shown) [Example 547, 2-[4-(6-cyclopropylmethoxy-pyrazin-2-yl)-2,6-difluoro-phenoxymethyl]-cyclopropanecarboxylic acid]
> 6.70 | O=C(O)CCCOc1c(F)cc(-c2csc(OCC3CC3)n2)cc1F [Example 397, 4-[4-[2-(cyclopropylmethoxy)thiazol-4-yl]-2,6-difluoro-phenoxy]butanoic acid]
5.70 to 6.70 | CC(C)CCc1cncc(-c2cc(F)c(N3CCC(CC(=O)O)CC3)c(F)c2)n1 [Example 370, 2-[1-[2,6-difluoro-4-(6-isopentylpyrazin-2-yl)phenyl]-4-piperidyl]acetic acid]
5.70 to 6.70 | CCOCc1cccc(-c2cc(F)c(N3CCC(CC(=O)O)CC3)c(F)c2)c1 [Example 303, 2-[1-[4-[3-(ethoxymethyl)phenyl]-2,6-difluoro-phenyl]-4-piperidyl]acetic acid]
5.70 to 6.70 | O=C(O)CC1CCC(c2ccc(-c3cccnc3OC3CCCC3)cc2F)CC1 (stereo not shown) [Example 187, {4-[4-(2-cyclopentyloxy-pyridin-3-yl)-2-fluoro-phenyl]-cyclohexyl}-acetic acid]
> 6.70 | CC(C)Sc1ncccc1-c1cc(F)c(N2CC[C@H](CC(=O)O)C2)c(F)c1 [Example 134, 2-[(3R)-1-[2,6-difluoro-4-(2-isopropylsulfanyl-3-pyridyl)phenyl]pyrrolidin-3-yl]acetic acid]
> 6.70 | CC(C)N(C)c1ccccc1-c1cc(F)c(N(C)CCCC(=O)O)c(F)c1 [Example 223, 4-{[3,5-difluoro-2′-(isopropyl-methyl-amino)-biphenyl-4-yl]-methyl-amino}-butyric acid]
> 6.70 | CN(CCCC(=O)O)c1c(F)cc(-c2cccc(OC3CCCC3)c2)cc1F [Example 525, 4-[(3′-cyclopentyloxy-3,5-difluoro-biphenyl-4-yl)-methyl-amino]-butyric acid]
